{
  "source": "patent US20150031128A1",
  "about": "“CULTURE MEDIUM FOR EUKARYOTIC CELLS” (Friesland Brands B.V., priority 2012, published 2015)",
  "key": {"[1]": {"test_system": "IgG expressing CHO cell line (CHO-2: ATCC CRL 11397, producing IgG4)", "experiment": "Specific IgG production of IgG expressing CHO cells in supplemented chemically defined medium (sandwich ELISA / AUC)", "assay_type": "cell-based, Chinese hamster", "details": "ratio of cumulative IgG production (mg/ml) and AUC at day 11", "description": "(§1) The cell culture assay was carried out in commercially available IS CHO-CD medium (Irvine Scientific, Cat. No. 91119). To this media, L-Glutamine (2 mM), pluronic acid, hypoxanthine (100 μM) and thymidine (15 μM) were added. Penicillin and streptomycin were added to prevent any bacterial growth during the growth assay. The media was supplemented with sodium-L-lactate, methyl-L-3-phenyl lactate, mucic acid, D-chiro-inositol, ferulic acid, syringic acid, adenine (A2786) and trigonelline, all purchased from Sigma Aldrich, Germany, in varying concentrations (see Table 2). The supplemented medium was mixed with a vortex mixture, filtered using a 0.22 μm filter and subsequently used in a growth assay.\n(§2) An IgG expressing CHO cell line was used (CHO-2: ATCC CRL 11397, producing IgG4). The cell lines were grown in the adherent conditions for a few passages and once confluent, they were transferred to animal-free conditions in the supplemented media described in Example 2.\n(§3) To measure growth and production curves, Chinese hamster ovary (CHO) cells were grown in suspension culture in baffled flasks. 20×10^6 cells were transferred in 25 ml media to the baffled flasks. Chemically defined media with and without added cell culture medium components were tested. No fresh media was added during the growth assay. Cells were counted using the CEDEX HiRes cell counter (Innovatis, Germany). The cell counts were used to calculate the area under the growth curve and represented as dimensionless area under curve (AUC) values as described in detail in Ling, C. X, Huang, J. and Zhang, H. (2003), International joint conferences on artificial intelligence, pp. 329-341. The supernatant samples were taken every alternate days for the IgG production measurements. IgG production was measured using sandwich ELISA method. The specific IgG production was calculated by taking the ratio of cumulative IgG production (in mg/ml) and AUC measured at day 11 of the growth assay. The cells were visually inspected using a phase contrast microscope (Zeiss Axiovert 25, 400× magnification). […] Only single cells were observed and no aggregation of cells was seen. The cell shape was also positively affected. […] This was in contrast with the observation that a lot of cell aggregates were present in CHO cell cultures grown in chemically defined medium without cell culture medium components.\n(§4) Table 2A and 2B. Specific IgG production and cell growth of CHO cells in chemically defined cell culture medium (see Example 5 for details) with added cell culture medium components of the invention in varying concentrations. Production and growth data in chemically defined cell culture medium without added alpha-hydroxy acid derivatives, as well as in chemically defined cell culture medium supplemented with soy protein hydrolysate (0.4% w/v) and with fetal calf serum (Gibco-Invitrogen; 5% v/v) are provided for comparison."}, "[2]": {"test_system": "IgG expressing CHO cell line (CHO-2: ATCC CRL 11397, producing IgG4)", "experiment": "Cell growth (area under growth curve) of CHO cells in supplemented chemically defined medium", "assay_type": "cell-based, Chinese hamster", "details": "dimensionless AUC", "description": "as §1, §2, §3, §4"}, "[3]": {"test_system": "antibody production in cell culture", "experiment": "Correlation (linear regression, SLOPE) of antibody production with relative concentration of components in plant protein hydrolysates", "assay_type": "cell-based", "details": "linear regression over plant protein hydrolysates; higher positive slope = higher importance", "description": "Commercial plant protein hydrolysates like SE50MAF-UF, WGE80M-UF, CNE80M-UF, PCE80B obtained from FrieslandCampina Domo, USA were analysed by Liquid chromatography/Mass Spectrometry (LC/MS, LC/MS2) using a Waters Acquity UPLC and a Thermo-Finnigan LTQ mass spectrometer, which consists of an electrospray ionization (ESI) source and linear ion-trap (LIT) mass analyzer. The sample extract was split into two aliquots, dried, then reconstituted in acidic or basic LC-compatible solvents. One aliquot was analyzed using acidic positive ion optimized conditions and the other using basic negative ion optimized conditions in two independent injections using separate dedicated columns. […] Using the SLOPE function of Microsoft Excel 2003, the correlation between antibody production and relative concentration of the components was calculated, the results of which are presented in Table 1 below. The higher the positive slope, the higher the importance of a biochemical component in the cell culture. p-values, also calculated using MS Excel's correlation regression function, represent the significance of the values, with the lower the p-value (all between 0 and 1), the more significant the measured value."}, "[4]": {"details": "component added at 1 × 10^−1 % w/v"}, "[5]": {"details": "component added at 1 × 10^−2 % w/v"}, "[6]": {"details": "component added at 1 × 10^−3 % w/v"}},
  "note": "Peptide text beside a SMILES is read from it.",
  "data": [
    {"smiles": "COc1cc(C(=O)O)cc(OC)c1O", "note": "[Syringic Acid, 4-hydroxy-3,5-dimethoxybenzoic acid]", "values": [
      {"measurement": "Specific IgG production after 11 days", "setting": "[1]; [4]", "result": 96.8},
      {"measurement": "Specific IgG production after 11 days", "setting": "[1]; [5]", "result": 93.2},
      {"measurement": "Specific IgG production after 11 days", "setting": "[1]; [6]", "result": 77.3},
      {"measurement": "Cell growth (area under curve) after 14 days", "setting": "[2]; [4]", "result": 60.0},
      {"measurement": "Cell growth (area under curve) after 14 days", "setting": "[2]; [5]", "result": 58.8},
      {"measurement": "Cell growth (area under curve) after 14 days", "setting": "[2]; [6]", "result": 53.4}
    ]},
    {"smiles": "CC(C)[C@H](N)C(=O)N[C@@H](CCC(=O)O)C(=O)O", "note": "[valinylglutamate] (H-Val-Glu-OH)", "values": [
      {"measurement": "SLOPE (correlation of antibody production and relative concentration of cell culture medium component)", "setting": "[3]", "result": 2064.16}
    ]},
    {"smiles": "OC1C(O)C(O)C(O)C(O)C1O", "note": "[D-Chiro-inositol, D-chiro-inositol]", "values": [
      {"measurement": "Specific IgG production after 11 days", "setting": "[1]; [4]", "result": 60.22},
      {"measurement": "Specific IgG production after 11 days", "setting": "[1]; [5]", "result": 93.05},
      {"measurement": "Specific IgG production after 11 days", "setting": "[1]; [6]", "result": 102.40},
      {"measurement": "Cell growth (area under curve) after 14 days", "setting": "[2]; [4]", "result": 64.24},
      {"measurement": "Cell growth (area under curve) after 14 days", "setting": "[2]; [5]", "result": 51.22},
      {"measurement": "Cell growth (area under curve) after 14 days", "setting": "[2]; [6]", "result": 50.18}
    ]},
    {"smiles": "O=C(O)CC[C@@H]1NC(=O)CNC1=O", "note": "[cyclo(Gly-Glu)]", "values": [
      {"measurement": "SLOPE (correlation of antibody production and relative concentration of cell culture medium component)", "setting": "[3]", "result": 1584.22}
    ]},
    {"smiles": "COc1cc(/C=C/C(=O)O)ccc1O", "note": "[ferulic acid, (E)-3-(4-hydroxy-3-methoxy-phenyl)prop-2-enoic acid]", "values": [
      {"measurement": "Specific IgG production after 11 days", "setting": "[1]; [4]", "result": 60.5},
      {"measurement": "Specific IgG production after 11 days", "setting": "[1]; [5]", "result": 86.3},
      {"measurement": "Specific IgG production after 11 days", "setting": "[1]; [6]", "result": 124.2},
      {"measurement": "Cell growth (area under curve) after 14 days", "setting": "[2]; [4]", "result": 66.3},
      {"measurement": "Cell growth (area under curve) after 14 days", "setting": "[2]; [5]", "result": 51.3},
      {"measurement": "Cell growth (area under curve) after 14 days", "setting": "[2]; [6]", "result": 49.7}
    ]},
    {"smiles": "C[n+]1cccc(C(=O)[O-])c1", "note": "[trigonelline, 1-methylpyridinium-3-carboxylate]", "values": [
      {"measurement": "Specific IgG production after 11 days", "setting": "[1]; [4]", "result": 83.65},
      {"measurement": "Specific IgG production after 11 days", "setting": "[1]; [5]", "result": 75.68}
    ]},
    {"smiles": "Nc1ncnc2nc[nH]c12", "note": "[adenine]", "values": [
      {"measurement": "Specific IgG production after 11 days", "setting": "[1]; [5]", "result": 100.8},
      {"measurement": "Specific IgG production after 11 days", "setting": "[1]; [6]", "result": 82.4}
    ]},
    {"smiles": "C[C@H](O)C(=O)[O-].[Na+]", "note": "[Sodium-L-lactate, sodium-L-lactate]", "values": [
      {"measurement": "Specific IgG production after 11 days", "setting": "[1]; [4]", "result": 93.77},
      {"measurement": "Cell growth (area under curve) after 14 days", "setting": "[2]; [4]", "result": 61.83}
    ]}
  ]
}
